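1) Cells in 96-well plates. 2) Compound, 48 h, 5 concentrations. 3) Linear interpolation between surrounding doses. 4) Unreached endpoint = highest concentration. TGI is the concentration that stops growth completely.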 *1 amine or outer side, *2 acyl side, *3 side chain or, on linkers, in order; H or OH if unused. Where a SMILES comes first, the peptide text is derived from it. Bridges are numbered along the chain shown (N, C = ends). [ ]: non-standard residue; d: D form. The star is where a group is joined. X59 = COc1c(N[*:1])cccc1C(=O)O[C@H](C(=O)[C@H](C)C(=O)[*:2])C(C)C; X58 = CC(C)C[C@H](C(=O)[*:2])C(C)C(=O)C1CCCN1[*:1]; NMeY = CN[C@@H](Cc1ccc(O)cc1)C(=O)O; Boc = CC(C)(C)OC(=O)*; Lac = C[C@H](O)C(=O)O; Bn = c1ccc(C*)cc1
Assays:
Experiment in all cases: NCI tumour cell line growth inhibition, 48 h
MDA-MB-435 = tested on: MDA-MB-435
ACHN renal = tested on: ACHN renal
HCT-116 colon = tested on: HCT-116 colon
DU-145 prostate = tested on: DU-145 prostate
NCI-H23 lung = tested on: NCI-H23 lung
MCF7 breast = tested on: MCF7 breast
T-47D breast = tested on: T-47D breast
NCI-H460 lung = tested on: NCI-H460 lung
NCI-H226 lung = tested on: NCI-H226 lung
NCI-H522 lung = tested on: NCI-H522 lung
MDA-N = tested on: MDA-N
A549 NSCLC = tested on: A549 NSCLC
SK-MEL-2 melanoma = tested on: SK-MEL-2 melanoma

Row | SMILES | TGI (MDA-MB-435) [µM] | TGI (ACHN renal) [µM] | TGI (HCT-116 colon) [µM] | TGI (DU-145 prostate) [µM] | TGI (NCI-H23 lung) [µM] | TGI (MCF7 breast) [µM] | TGI (T-47D breast) [µM] | TGI (NCI-H460 lung) [µM] | TGI (NCI-H226 lung) [µM] | TGI (NCI-H522 lung) [µM] | TGI (MDA-N) [µM] | TGI (A549 NSCLC) [µM] | TGI (SK-MEL-2 melanoma) [µM]
1 | COC(=O)/C=C1/OC(c2ccc(C)cc2C)=CC1=O | 30.1 | 29.3 | 24.1 | 30 | 61 | 28.3 | 38.4 | 36.5 | 48.9 | 43.3 | 36.4 |  | 
2 | C=CC[C@@]12CCC(=O)C=C1CCCC2=O | > 100 | > 100 | > 100 | > 100 | > 100 | > 100 | > 100 | > 100 | > 100 | > 100 | > 100 | > 100 | > 100
3 | COc1cc(/C=C2\C(=O)N(c3ccc(NC(C)=O)cc3)C(c3ccccc3)S2(=O)=O)cc(OC)c1OC (configuration not stated) | > 100 | > 100 | > 100 | > 100 | > 100 | > 100 | > 100 | > 100 | > 100 | > 100 | > 100 | > 100 | > 100
4 | O=C(c1ccc(Cl)c(Cl)c1)N(C(=O)N1CCN(c2ccccc2)CC1)S(=O)(=O)c1ccccc1 | > 100 | > 100 | 86.8 | > 100 | 96.2 | > 100 | > 100 | > 100 | 87.9 | 39.7 | 62.8 | > 100 | 48.2
5 | N/N=C(/CC(O)(C(F)(F)F)C(F)(F)F)c1ccccc1 | > 10 | > 10 | > 10 | > 10 | > 10 | > 10 | > 10 | > 10 | > 10 | > 10 | > 10 | > 10 | > 10
6 | CNc1cccc2c1C(C)C[C@]1(C)C(=O)Nc3ccccc3[C@H]21 (some centres not stated) | 53.4 | 50.8 | 34.8 | > 100 | > 100 | 47.4 | > 100 | 41.1 | 61.4 | 89 | 69.9 | 38.6 | 55.3
7 | COC(=O)C(CC(C)C)NC(=O)CNC(=O)C(Cc1ccc(OCc2ccccc2)cc1)NC(=O)C(COCc1ccccc1)NC(=O)OC(C)(C)C (configuration not stated) (Boc-S(Bn)Y(Bn)GL-OMe; configuration not given here) | > 100 | > 100 | > 100 | > 100 | > 100 | > 100 | > 100 | > 100 | > 100 | > 100 | > 100 | > 100 | 
8 | N#CCCN(CCCN(C(=O)Nc1ccc(NC(=O)N(CCCN(CCC#N)C(N)=O)c2ccccc2)cc1)c1ccccc1)C(N)=O | > 100 | > 100 | > 100 | > 100 | > 100 | > 100 | > 100 | > 100 | > 100 | > 100 | > 100 | > 100 | > 100
9 | O=C1O/C(=C(/Cl)c2c3ccccc3cc3ccccc23)c2ccccc21 | 58 | 82.9 | 9.58 | > 100 | 79.9 | > 100 | > 100 | > 100 | 73.6 | > 100 | > 100 | > 100 | 51.2
10 | COC(=O)C1=C(C(=O)OC)C(OO)(c2ccccc2)OC1=O (configuration not stated) | > 100 | > 100 | > 100 | > 100 | > 100 | > 100 | > 100 | > 100 | > 100 | > 100 | > 100 | > 100 | > 100
11 | N#Cc1nc(-c2ccc(-c3nc(C#N)c(N)o3)cc2)oc1N | > 10 | > 10 | > 10 | > 10 | > 10 | > 10 | > 10 | > 10 | > 10 | > 10 | > 10 | > 10 | 
12 | COc1ccc(C[C@H]2C(=O)O[C@H](C)[C@H](NC(=O)[C@@H](CC(C)C)C(C)C(=O)C3CCCN3C(=O)[C@H](C)O)C(=O)Nc3cccc(c3OC)C(=O)O[C@@H](C(C)C)C(=O)[C@H](C)C(=O)N[C@@H](CC(C)C)C(=O)N3CCC[C@H]3C(=O)N2C)cc1 (some centres not stated) (H-[Lac][X58]T[X59]LP[NMeY](Me); ester 3-C) | > 12.5 | > 12.5 | > 12.5 | > 12.5 | > 12.5 | > 12.5 | > 12.5 | > 12.5 | > 12.5 | > 12.5 | > 12.5 | > 12.5 | > 12.5
13 | Cn1c(-c2cccs2)cc(-c2ccsc2)c1-c1cccs1 | > 100 | > 100 | > 100 | > 100 | > 100 | > 100 | 73.2 | > 100 | > 100 | > 100 | > 100 | > 100 | 
14 | CC1(C)N([O-])[N+](=O)C1(Br)c1ccccc1 (configuration not stated) | > 100 | > 100 | > 100 | > 100 | > 100 | > 100 | > 100 | > 100 | > 100 |  | > 100 | > 100 | > 100
15 | O=S1(=O)c2ccccc2-c2nccc3ccnc1c23 | > 100 | 85.3 | > 100 | > 100 | 44 | > 100 | > 100 | 76.1 | > 100 | 29.9 | > 100 |  | > 100
16 | CCOC(=O)CON=c1c2ccccc2ccc2ccccc12 | > 100 | > 100 | > 100 | > 100 | > 100 | > 100 | > 100 | > 100 | > 100 |  | > 100 | > 100 | > 100
17 | CC(C)(C)Cc1cc(O)ccc1O | > 100 | > 100 | > 100 | > 100 | > 100 | > 100 | > 100 | > 100 | > 100 | 86.7 | > 100 | > 100 | 
